Reference: US20170128518A1, “METHODS AND MATERIALS FOR IDENTIFYING AND TREATING MAMMALS RESISTANT TO PROTEASOME INHIBITOR TREATMENTS” (Mayo Foundation for Medical Education and Research, priority 2014, published 2017)

Key:
[1] = tested on: BCWM.1/BR; test: MTS viability assay, BCWM.1/BR; type: cell-based, human; settings: 72-h MTS assay
Procedure: FIGS. 4A-4D show the characterization of BR WM models, established by subjecting WM cancer cell lines (n=3) chronic drug exposure. […] FIG. 4C is a graph plotting relative fluorescence units in an assay to examine PSMB5 enzyme function by flow cytometry.
Twenty thousand cells/200 μl in quadruplicates were incubated with serially diluted b-AP15 (1-1000 nmol/l) in 96-well plates at 37° C. for 72 hours. MTS (3-(4,5-dimethylthiazol-2-yl)-5-(3-carboxymethoxyphenyl)-2-(4-sulfophenyl)-2H-tetrazolium) reagent (Molecular Probes, Eugene, Oreg.) was added at 40 μl/well and the plates were further incubated at 37° C. for 3 hours and the developed color was read at 490 nm using a BioTek synergy HT plate reader against blanks with no cells.

[2] = tested on: WM cell lines (BCWM.1, BCWM.1/BR, RPCI-WM1, RPCI-WM/BR); test: NanoString nCounter gene expression profiling; type: cell-based, human; settings: 50 nmol/l (WT) or 100 nmol/l (BR), 24 hours
Procedure: FIGS. 14A and 14B are diagrams depicting genes altered in b-AP15 treated WM cells. BCWM.1 and RPCI-WM1 were treated with b-AP15 (50 nmol/l), and BR clones were treated with 100 nmol/1 of the DUB inhibitor for 24 hours, followed by collection of RNA for profiling using the NanoString nCounter assay. FIG. 14A is an intersect analysis in which treated (Tx) cell lines were first compared to their untreated counterparts and then against one another to delineate which genes were altered in the same orientation across all four cell lines tested. FIG. 14B is a diagram of an IPA network analysis, depicting the relationship between the 36 genes and illustrating the interaction and relative expression of these genes. The darkness of the node color denotes the degree of differential gene expression as compared to baseline.
Total RNA from four WM cell lines (BCWM.1, BCWM.1/BR, RPCI-WM1 and RPCI-WM/BR) were prepared using Exiqon miRCURY RNA isolation kit (Exiqon, Woburn, Mass. USA) following the manufacturer's instructions. RNA samples were quantitated using a ND-1000 spectrophotometer (NanoDrop) and evaluated for degradation using a 2100 Bioanalyzer (Agilent Technologies, Santa Clara, Calif., USA).
The NanoString nCounter (NanoString, Seattle, Wash.) assay was used for mRNA quantification and expression in WM cells that were treated with b-AP15, as described elsewhere (Geiss et al., Nat Biotechnol 26:317-25, 2008; and Paulus et al., Brit J Haematol 164:352-65, 2014). Briefly, a library is constructed with two sequence-specific probes for the gene of interest. Unique pairs of 3′ reporter and 5′ capture probes are developed to distinguish transcripts for the gene of interest using a color-based barcoding system. The capture probe contains a base pair sequence that is complementary to the target mRNA and linked to a biotin affinity tag, which binds the mRNA of interest. The reporter probe also is also designed to be complementary to the target mRNA, contains a base sequence that is linked to an RNA-based color-coded molecular tag that provides a signal for detection. Using this method, a distinct color code is digitally generated for each gene of interest. In our experiments, all probes were mixed together with total RNA (100 ng from each sample) in a single hybridization reaction for 12 hours at 65° C. in solution. Using the nCounter Prep Station, each probe-mRNA complex was captured post-hybridization onto a streptavidin coated surface, aligned and imaged. Each sample was scanned for 600 FOV on the nCounter Digital Analyzer. As each target mRNA is designated by its unique color code, the level of expression was quantified by counting the number of codes for each molecule. Subsequent normalization of the raw data to internal controls provided by the manufacturer was performed using the nSolver Analysis software v1.1. Data was extracted using the nCounter RCC Collector; based on the positive and negative controls, a cutoff of 20 was used to filter out transcript signals that registered at levels of background noise.
Statistical interpretation and data visualization (heat map) was conducted using Multi Experiment Viewer (MeV) from The Institute for Genomic Research (TIGR) (Saeed et al., Methods Enzymol 411:134-193, 2006; and Saeed et al., Biotechniques 34:374-378, 2003). Using the normalized data that was exported from nCounter RCC Collector, an average of mRNA transcript probe values was taken for each cell line (three biological replicates each) representing controls (untreated) and drug-treated samples, a tab-delimited text file was generated in Microsoft Excel and uploaded into MeV. Genes were log-2 transformed and mean centered. Bi-dimensional, average-linkage, unsupervised hierarchical clustering analysis was applied to find the relationships between samples and genes using the Pearson correlation coefficient.

C=CC(=O)N1C/C(=C\c2ccc([N+](=O)[O-])cc2)C(=O)/C(=C/c2ccc([N+](=O)[O-])cc2)C1 [b-AP15]
IC50 [1]: 16 nM | Average fold change, AKT2 [2]: −2.812 fold | Average fold change, BIRC5 [2]: −2.209 fold | Average fold change, BMI1 [2]: −3.09 fold | Average fold change, CASP2 [2]: −3.679 fold | Average fold change, CCNA2 [2]: −5.841 fold | Average fold change, CCND2 [2]: −3 fold | Average fold change, CCNE1 [2]: −4.193 fold | Average fold change, CDC2 [2]: −4.668 fold | Average fold change, CDC25B [2]: −3.629 fold | Average fold change, CDK4 [2]: −2.59 fold | Average fold change, CSK [2]: −3.871 fold | Average fold change, E2F1 [2]: −3.634 fold | Average fold change, EGR1 [2]: 2.27 fold | Average fold change, ETV6 [2]: −4.643 fold | Average fold change, FOS [2]: 5.569 fold | Average fold change, HDAC1 [2]: −2.887 fold | Average fold change, HRAS [2]: −3.277 fold | Average fold change, IL8 [2]: 14.77 fold | Average fold change, JUN [2]: 5.625 fold | Average fold change, MSH2 [2]: −4.367 fold | Average fold change, MSH6 [2]: −4.242 fold | Average fold change, MYB [2]: −9.647 fold | Average fold change, MYBL2 [2]: −2.794 fold | Average fold change, MYC [2]: −3.287 fold | Average fold change, PCNA [2]: −3.166 fold | Average fold change, RAD54L [2]: −3.029 fold | Average fold change, SERPINE1 [2]: 5.734 fold | Average fold change, SPI1 [2]: −2.522 fold | Average fold change, SYK [2]: −3.84 fold | Average fold change, TFDP1 [2]: −4.261 fold | Average fold change, TFRC [2]: −3.192 fold | Average fold change, TOP2A [2]: −6.321 fold | Average fold change, TUBB [2]: −3.724 fold | Average fold change, TYMS [2]: −3.966 fold | Average fold change, XPC [2]: −3.045 fold | Average fold change, XRCC5 [2]: −2.834 fold
